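Test compounds were applied to cells in 96-well plates for 48 hours at 5 doses. Abbreviation: GI50, concentration required for 50% inhibition of growth. The concentration for full growth arrest is given as TGI.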
What was measured:
Experiment in all cases: growth of human tumour cells (NCI), 48 h
RPMI-8226 leukemia = test system: RPMI-8226 leukemia
MALME-3M melanoma = test system: MALME-3M melanoma
CCRF-CEM leukemia = test system: CCRF-CEM leukemia
KM12 colon = test system: KM12 colon
UACC-62 melanoma = test system: UACC-62 melanoma
A498 renal = test system: A498 renal
LOX IMVI melanoma = test system: LOX IMVI melanoma
EKVX NSCLC = test system: EKVX NSCLC
M14 melanoma = test system: M14 melanoma
COLO 205 colon = test system: COLO 205 colon
SK-MEL-5 melanoma = test system: SK-MEL-5 melanoma
NCI-H226 lung = test system: NCI-H226 lung
HL-60(TB) leukemia = test system: HL-60(TB) leukemia
OVCAR-3 ovarian = test system: OVCAR-3 ovarian
IGROV1 ovarian = test system: IGROV1 ovarian
NCI-H460 lung = test system: NCI-H460 lung
OVCAR-5 ovarian = test system: OVCAR-5 ovarian
U251 CNS = test system: U251 CNS
UO-31 renal = test system: UO-31 renal
786-0 renal = test system: 786-0 renal
UACC-257 melanoma = test system: UACC-257 melanoma
NCI-H522 lung = test system: NCI-H522 lung
CAKI-1 renal = test system: CAKI-1 renal
BT-549 breast = test system: BT-549 breast
ACHN renal = test system: ACHN renal
SNB-75 CNS = test system: SNB-75 CNS
SF-295 CNS = test system: SF-295 CNS
SR leukemia = test system: SR leukemia
HT29 colon = test system: HT29 colon
OVCAR-4 ovarian = test system: OVCAR-4 ovarian
HOP-62 NSCLC = test system: HOP-62 NSCLC
SN12C renal = test system: SN12C renal
SNB-19 CNS = test system: SNB-19 CNS
SW-620 colon = test system: SW-620 colon
PC-3 prostate = test system: PC-3 prostate
HCT-116 colon = test system: HCT-116 colon
HCT-15 colon = test system: HCT-15 colon
TK-10 renal = test system: TK-10 renal
HCC-2998 colon = test system: HCC-2998 colon
OVCAR-8 ovarian = test system: OVCAR-8 ovarian
T-47D breast = test system: T-47D breast
A549 NSCLC = test system: A549 NSCLC
MOLT-4 leukemia = test system: MOLT-4 leukemia
NCI-H23 lung = test system: NCI-H23 lung
SK-OV-3 ovarian = test system: SK-OV-3 ovarian
MDA-MB-231 breast = test system: MDA-MB-231 breast
SK-MEL-2 melanoma = test system: SK-MEL-2 melanoma
SK-MEL-28 melanoma = test system: SK-MEL-28 melanoma
HS 578T breast = test system: HS 578T breast
SF-268 CNS = test system: SF-268 CNS
HOP-92 NSCLC = test system: HOP-92 NSCLC
MCF7 breast = test system: MCF7 breast
K-562 leukemia = test system: K-562 leukemia
RXF 393 renal = test system: RXF 393 renal
SF-539 CNS = test system: SF-539 CNS

Compound `COc1ccc(/C=C(\C#N)c2cc(OC)c(OC)c(OC)c2)cc1` has a GI50 (RPMI-8226 leukemia) of 48.3 nM, a TGI (RPMI-8226 leukemia) of 27000 nM and a GI50 (MALME-3M melanoma) of 21300 nM. The TGI (MALME-3M melanoma) was > 100000 nM, the GI50 (CCRF-CEM leukemia) was 36.1 nM and the TGI (CCRF-CEM leukemia) was > 43500 nM. The GI50 (KM12 colon) was < 10 nM, the TGI (KM12 colon) was > 100000 nM and the GI50 (UACC-62 melanoma) was 10.3 nM. The TGI (UACC-62 melanoma) was > 100000 nM, the GI50 (A498 renal) was 12.3 nM and the TGI (A498 renal) was 1580 nM. The GI50 (LOX IMVI melanoma) was 25.8 nM, the TGI (LOX IMVI melanoma) was > 100000 nM and the GI50 (EKVX NSCLC) was 65.6 nM. The TGI (EKVX NSCLC) was > 100000 nM, the GI50 (M14 melanoma) was 26.9 nM and the TGI (M14 melanoma) was > 100000 nM. The GI50 (COLO 205 colon) was 11 nM, the TGI (COLO 205 colon) was 25.1 nM and the GI50 (SK-MEL-5 melanoma) was 18.2 nM. It also gave a TGI (SK-MEL-5 melanoma) of 64.4 nM, a GI50 (NCI-H226 lung) of 25.2 nM and a TGI (NCI-H226 lung) of 70.6 nM. For the same compound, the GI50 (HL-60(TB) leukemia) was 24.4 nM, the TGI (HL-60(TB) leukemia) was 66.1 nM and the GI50 (OVCAR-3 ovarian) was < 14 nM. For the same compound, the TGI (OVCAR-3 ovarian) was 32.2 nM, the GI50 (IGROV1 ovarian) was 43.2 nM and the TGI (IGROV1 ovarian) was > 100000 nM. The GI50 (NCI-H460 lung) was 32.7 nM, the TGI (NCI-H460 lung) was 23600 nM and the GI50 (OVCAR-5 ovarian) was 42.4 nM. The TGI (OVCAR-5 ovarian) was > 100000 nM, the GI50 (U251 CNS) was 35.9 nM and the TGI (U251 CNS) was > 100000 nM. The GI50 (UO-31 renal) was 38.9 nM, the TGI (UO-31 renal) was 58600 nM and the GI50 (786-0 renal) was 30.9 nM. The TGI (786-0 renal) was 34600 nM, the GI50 (UACC-257 melanoma) was 12 nM and the TGI (UACC-257 melanoma) was > 100000 nM. The GI50 (NCI-H522 lung) was < 10 nM, the TGI (NCI-H522 lung) was 26.8 nM and the GI50 (CAKI-1 renal) was 20.9 nM. The TGI (CAKI-1 renal) was > 100000 nM, the GI50 (BT-549 breast) was 28.2 nM and the TGI (BT-549 breast) was 88.3 nM. The GI50 (ACHN renal) was 47.8 nM, the TGI (ACHN renal) was > 100000 nM and the GI50 (SNB-75 CNS) was 29.7 nM. For the same compound, the TGI (SNB-75 CNS) was > 100000 nM, the GI50 (SF-295 CNS) was < 15.6 nM and the TGI (SF-295 CNS) was 50700 nM. The GI50 (SR leukemia) was < 10 nM, the GI50 (HT29 colon) was 25.1 nM and the TGI (HT29 colon) was 17800 nM. For the same compound, the GI50 (OVCAR-4 ovarian) was 29.7 nM, the TGI (OVCAR-4 ovarian) was > 100000 nM and the GI50 (HOP-62 NSCLC) was < 18.4 nM. For the same compound, the TGI (HOP-62 NSCLC) was > 100000 nM, the GI50 (SN12C renal) was 48.6 nM and the TGI (SN12C renal) was > 100000 nM. The GI50 (SNB-19 CNS) was 55.8 nM, the TGI (SNB-19 CNS) was > 100000 nM and the GI50 (SW-620 colon) was 28.2 nM. For the same compound, the TGI (SW-620 colon) was > 100000 nM, the GI50 (PC-3 prostate) was 30.8 nM and the TGI (PC-3 prostate) was > 87100 nM. The GI50 (HCT-116 colon) was 16.1 nM, the TGI (HCT-116 colon) was > 100000 nM and the GI50 (HCT-15 colon) was 35.9 nM. For the same compound, the TGI (HCT-15 colon) was > 100000 nM, the TGI (TK-10 renal) was > 100000 nM and the GI50 (HCC-2998 colon) was 28.3 nM. For the same compound, the TGI (HCC-2998 colon) was 1250 nM, the GI50 (OVCAR-8 ovarian) was 29.3 nM and the TGI (OVCAR-8 ovarian) was > 82800 nM. It also gave a GI50 (T-47D breast) of 672 nM, a TGI (T-47D breast) of 61800 nM and a GI50 (A549 NSCLC) of 28.8 nM. For the same compound, the TGI (A549 NSCLC) was > 75200 nM, the GI50 (MOLT-4 leukemia) was 39.1 nM and the TGI (MOLT-4 leukemia) was 6850 nM. For the same compound, the GI50 (NCI-H23 lung) was 24.2 nM, the TGI (NCI-H23 lung) was > 100000 nM and the GI50 (SK-OV-3 ovarian) was < 13.8 nM. For the same compound, the TGI (SK-OV-3 ovarian) was 221 nM, the GI50 (MDA-MB-231 breast) was 48.3 nM and the TGI (MDA-MB-231 breast) was > 100000 nM. For the same compound, the GI50 (SK-MEL-2 melanoma) was 35.6 nM, the TGI (SK-MEL-2 melanoma) was > 100000 nM and the GI50 (SK-MEL-28 melanoma) was 63.4 nM. For the same compound, the TGI (SK-MEL-28 melanoma) was > 100000 nM, the GI50 (HS 578T breast) was 35.9 nM and the TGI (HS 578T breast) was > 100000 nM. The GI50 (SF-268 CNS) was 48.1 nM, the TGI (SF-268 CNS) was > 100000 nM and the GI50 (HOP-92 NSCLC) was 277 nM. The TGI (HOP-92 NSCLC) was 25100 nM, the GI50 (MCF7 breast) was 27.2 nM and the TGI (MCF7 breast) was > 50300 nM. For the same compound, the GI50 (K-562 leukemia) was < 10 nM, the TGI (K-562 leukemia) was > 100000 nM and the GI50 (RXF 393 renal) was < 14.1 nM. The TGI (RXF 393 renal) was > 90700 nM, the GI50 (SF-539 CNS) was 19.9 nM and the TGI (SF-539 CNS) was > 100000 nM.
